Reference: patent US20250051347A1, “BIFUNCTIONAL CHIMERIC HETEROCYCLIC COMPOUND AND USE THEREOF AS ANDROGEN RECEPTOR DEGRADER” (Hinova Pharmaceuticals, Inc., priority 2021, published 2025)

Molecular target: T1, androgen receptor (AR) splicing variant AR-v7 (Homo sapiens, UniProt P10275)
T1 construct: The degradation activity of compounds on AR-v7 in 22RV1 cells; host or cells: 22RV1 cells
T1 sequence (P10275 1-644 isoform P10275-3): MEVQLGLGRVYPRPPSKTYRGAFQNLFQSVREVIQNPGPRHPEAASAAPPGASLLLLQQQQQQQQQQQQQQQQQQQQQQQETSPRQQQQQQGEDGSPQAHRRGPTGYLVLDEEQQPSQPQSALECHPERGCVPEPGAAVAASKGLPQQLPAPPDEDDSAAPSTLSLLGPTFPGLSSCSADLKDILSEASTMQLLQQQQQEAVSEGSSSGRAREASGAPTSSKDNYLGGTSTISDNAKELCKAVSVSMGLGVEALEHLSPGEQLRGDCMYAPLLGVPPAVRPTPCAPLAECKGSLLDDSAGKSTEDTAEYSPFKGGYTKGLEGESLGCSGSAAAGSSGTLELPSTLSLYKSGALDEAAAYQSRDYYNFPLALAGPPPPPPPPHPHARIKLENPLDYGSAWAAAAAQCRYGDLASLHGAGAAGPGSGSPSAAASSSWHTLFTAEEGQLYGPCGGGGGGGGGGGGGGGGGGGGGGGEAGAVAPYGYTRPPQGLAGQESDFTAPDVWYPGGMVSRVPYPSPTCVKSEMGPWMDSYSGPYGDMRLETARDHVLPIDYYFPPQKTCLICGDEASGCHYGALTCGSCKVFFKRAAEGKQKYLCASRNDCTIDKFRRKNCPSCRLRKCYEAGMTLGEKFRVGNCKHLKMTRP
Experiment: Degradation activity on androgen receptor splicing variant AR-v7 in 22RV1 cells (ELISA)
Type: cell-based
Conditions: AR-v7 degradation in 22RV1 cells, 48 h
Procedure: The degradation activity of the compound of the present invention on the androgen receptor splicing variant AR-V7 was analyzed using enzyme-linked immunosorbent assay (ELISA).
The plate was cultured in a 5% CO2 cell incubator at 37° C. for 2 days until the cells adhered to the wall. • 2) The drug was prepared into 10 mM stock solution with dimethylsulfoxide (DMSO). […] The plate was gently shaken and mixed. In addition, negative control wells (only containing culture medium) and positive control wells (only containing cells and DMSO) were set. • 3) After the cells were cultured in an incubator for 48 h, the medium was removed and the cells were rinsed once with ice cold PBS. Then, ice-cold 1× cell lysis buffer was added to each well of the cell culture plate. After the plate was incubated on ice for 15 min, the plate was tapped to mix. • 4) The supernatant of the cell lysate was transferred from the cell culture plate to a […] plate for ELISA. • 5) The newly prepared Capture antibody (green) was mixed with the newly prepared HRP-labeled antibody (red), and then the antibody mixture was added to the above 96-well ELISA plate. • 6) The ELISA plate was sealed with plastic film, and then incubated in a 25° C. incubator for 1 h. • 7) The washing buffer was added to each well, and then TMB substrate was added to each well of the ELISA plate. Subsequently, the plate was cultured in an incubator at 37° C. for 5 min. • 8) 100 μl of stop solution was added to each well of the ELISA plate, and the plate was gently tapped for several seconds. The absorbance was read at 450 nm within 30 min. The data were analyzed by the Dose-response equation in the software GraphPad Prism8, to obtain DC50 and Dmax values.

CN(c1nccc(COc2ccc(C(C)(C)c3ccc(OCCCCCCCCOCCCCNc4ccc5c(c4)C(=O)N(C4CCC(=O)NC4=O)C5=O)cc3)cc2)n1)S(C)(=O)=O (stereo not drawn) [Example 25, N-(4-((4-(2-(4-((8-(4-((2-(2,6-dioxopiperidin-3-yl)-1,3-dioxoisoindolin-5-yl)amino)butoxy)octyl)oxy)phenyl)propan-2-yl)phenoxy)methyl)pyrimidin-2-yl)-N-methyl methanesulfonamide]
DC50 (numeric values): > 10000 nM

CC(C)(c1ccc(OCCCCNc2cccc3c2C(=O)N(C2CCC(=O)NC2=O)C3=O)cc1)c1ccc(OCc2ccnc(NS(C)(=O)=O)n2)cc1 (stereo not drawn) [Example 10, N-(4-((4-(2-(4-(4-((2-(2,6-dioxopiperidin-3-yl)-1,3-dioxoisoindolin-yl)amino)butoxy)phenyl)propan-2-yl)phenoxy)methyl)pyrimidin-2-yl)methanesulfonamide]
DC50 (class symbols): 1000 to 5000 nM

Cc1nc(-c2ccc(Oc3ccc(C(C)(C)c4ccc(O[C@H]5C[C@H](Nc6ccc7c(c6)C(=O)N(C6CCC(=O)NC6=O)C7=O)C5)cc4)cc3)cc2)no1 (stereo partly drawn) [Example 332, 2-(2,6-dioxopiperidin-3-yl)-5-((1r,3r)-3-(4-(2-(4-(4-(5-methyl-1,2,4-oxadiazol-3-yl)phenoxy)phenyl)propan-2-yl)phenoxy)cyclobutyl)aminoisoindolin-1,3-dione]
DC50 (class symbols): 11 to 100 nM

CC(C)(c1ccc(Oc2cnc(CN3CC(F)(F)C3)nc2)cc1)c1ccc(OC2CC(Nc3ccc4c(c3)C(=O)N(C3CCC(=O)NC3=O)C4=O)C2)cc1 (stereo not drawn) [Example 479, 5-(((1r,3r)-3-(4-(2-(4-((2-((3,3-difluoroazetidin-1-yl)methyl)pyrimidin-5-yl)oxy)phenyl)propan-2-yl)phenoxy)cyclobutyl)amino)-2-(2,6-dioxopiperidin-3-yl)isoindolin-1,3-dione]
DC50 (class symbols): 11 to 100 nM

CC(C)(c1ccc(Oc2ccc(N3CC4(COC4)C3)nc2)cc1)c1ccc(O[C@H]2C[C@H](Nc3ccc4c(c3)C(=O)N(C3CCC(=O)NC3=O)C4=O)C2)cc1 (stereo partly drawn) [Example 214]
DC50 (class symbols): 11 to 100 nM

Cc1nc(-c2ncc(Oc3ccc(C(C)(C)c4ccc(O[C@H]5C[C@H](Nc6cc7c(cc6F)C(=O)N(C6CCC(=O)NC6=O)C7=O)C5)cc4)cc3)cn2)no1 (stereo partly drawn) [Example 102]
DC50 (class symbols): 11 to 100 nM

CC(C)(c1ccc(Oc2ccc(-n3cccn3)nc2)cc1)c1ccc(O[C@H]2C[C@H](Nc3ccc4c(c3)C(=O)N(C3CCC(=O)NC3=O)C4=O)C2)cc1 (stereo partly drawn) [Example 208]
DC50 (class symbols): 11 to 100 nM

Cc1nc(-c2ncc(Oc3ccc(C(C)(C)c4ccc(N5CCC56CN(c5ccc7c(c5)C(=O)N(C5CCC(=O)NC5=O)C7=O)C6)cc4)cc3)cn2)no1 (stereo not drawn) [Example 179, 2-(2,6-dioxopiperidin-3-yl)-5-(1-(4-(2-(4-((2-(5-methyl-1,2,4-oxadiazol-3-yl)pyrimidin-5-yl)oxy)phenyl)propan-2-yl)phenyl)-1,6-diazaspiro[3.3]heptan-6-yl)isoindolin-1,3-dione]
DC50 (class symbols): 101 to 1000 nM

CC(C)(c1ccc(OCc2ccnc(NS(C)(=O)=O)n2)cc1)c1ccc(OCC2CCN(CCCOCCCCNc3ccc4c(c3)C(=O)N(C3CCC(=O)NC3=O)C4=O)CC2)cc1 (stereo not drawn) [Example 16]
DC50 (numeric values): > 10000 nM

CC(=O)c1nccc(COc2ccc(C(C)(C)c3ccc(OC[C@H]4CC[C@H](Nc5ccc6c(c5)C(=O)N(C5CCC(=O)NC5=O)C6=O)CC4)cc3)cc2)n1 (stereo partly drawn) [Example 146]
DC50 (class symbols): 1000 to 5000 nM

CC(O)c1nccc(COc2ccc(C(C)(C)c3ccc(OCCCNc4cccc5c4C(=O)N(C4CCC(=O)NC4=O)C5=O)cc3)cc2)n1 (stereo not drawn) [Example 346, 2-(2,6-dioxopiperidin-3-yl)-4-((3-(4-(2-(4-((2-(1-hydroxylethyl)pyrimidin-4-yl)methoxy)phenyl)isopropan-2-yl)phenoxy)propyl)amino)isoindolin-1,3-dione]
DC50 (class symbols): 1000 to 5000 nM

CC(C)(c1ccc(OCc2ccnc(N3CC4(COC4)C3)n2)cc1)c1ccc(O[C@]2(C)C[C@@H](Nc3ccc4c(c3)C(=O)N(C3CCC(=O)NC3=O)C4=O)C2)cc1 (stereo partly drawn) [Example 499, 5-((1r,3r)-3-(4-(2-(4-(4-((2-(2-oxa-6-azaspiro[3.3]heptane-6-yl)pyrimidin-4-yl)methoxy)phenyl)propan-2-yl)phenoxy)-3-methylcyclobutyl)amino)-2-(2,6-dioxopiperidin-3-yl)isoindolin-1,3-dione]
DC50 (class symbols): 11 to 100 nM

CC(C)(c1ccc(OCc2ccnc(N3CCC4(CCNC4)C3)n2)cc1)c1ccc(O[C@H]2C[C@H](Nc3ccc4c(c3)C(=O)N(C3CCC(=O)NC3=O)C4=O)C2)cc1 (stereo partly drawn) [Example 81, 5-(((1r,3r)-3-(4-(2-(4-((2-(2,7-diazaspiro[4.4]nonan-2-yl)pyrimidin-4-yl)methoxy)phenyl)propan-2-yl)phenoxy)cyclobutyl)amino)-2-(2,6-dioxopiperidin-3-yl)isoindolin-1,3-dione]
DC50 (class symbols): 11 to 100 nM

CC(=O)c1nccc(COc2ccc(C(C)(C)c3ccc(OCC4CN(c5ccc6c(c5)C(=O)N(C5CCC(=O)NC5=O)C6=O)C4)cc3)cc2)n1 (stereo not drawn) [Example 485, 5-(3-((4-(2-(4-((2-acetylpyrimidin-4-yl)methoxy)phenyl)propan-2-yl)phenoxy)methyl)azetidin-1-yl)-2-(2,6-dioxopiperidin-3-yl)isoindolin-1,3-dione]
DC50 (class symbols): 11 to 100 nM

CC(C)(c1ccc(Oc2cnc(C(O)C3CCC3)nc2)cc1)c1ccc(O[C@H]2C[C@H](Nc3ccc4c(c3)C(=O)N(C3CCC(=O)NC3=O)C4=O)C2)cc1 (stereo partly drawn) [Example 261]
DC50 (class symbols): < 10 nM

CC(C)(c1ccc(OCc2ccnc(NS(C)(=O)=O)n2)cc1)c1ccc(OC[C@H]2CC[C@H](CN3CCC(CN4CCC5(CC4)CN(c4ccc6c(c4)C(=O)N(C4CCC(=O)NC4=O)C6=O)C5)CC3)CC2)cc1 (stereo partly drawn) [Example 39]
DC50 (numeric values): > 10000 nM

O=C1CCC(N2C(=O)c3ccc(N[C@H]4C[C@H](Oc5ccc(C6(c7ccc(Oc8ccc(-n9nccn9)nn8)cc7)CC6)cc5)C4)cc3C2=O)C(=O)N1 (stereo partly drawn) [Example 374, 5-(((1r,3r)-3-(4-(1-(4-((6-(2H-1,2,3-triazole-2-yl)pyridazine-3-yl)oxy)phenyl)cyclopropyl)phenoxy)cyclobutyl)amino)-2-(2,6-dioxopiperidin-3-yl)isoindolin-1,3-dione]
DC50 (class symbols): 11 to 100 nM

COC(=O)c1ncc(Oc2ccc(C(C)(C)c3ccc(O[C@H]4C[C@H](Nc5ccc6c(c5)C(=O)N(C5CCC(=O)NC5=O)C6=O)C4)cc3)cc2)cn1 (stereo partly drawn) [Example 266, methyl 5-(4-(2-(4-((1r,3r)-3-((2-(2,6-dioxopiperidin-3-yl)-1,3-dioxoisoindolin-5-yl)amino)cyclobutyloxy)phenyl)propan-2-yl)phenoxy)pyrimidin-2-carboxylate]
DC50 (class symbols): 11 to 100 nM

CC(C)(c1ccc(OCCCNc2ccc3c(c2)C(=O)N(C2CCC(=O)NC2=O)C3=O)cc1)c1ccc(OCc2nc(C(N)=O)cs2)cc1 (stereo not drawn) [Example 441, 2-((4-(2-(4-(3-((2-(2,6-dioxopiperidin-3-yl)-1,3-dioxoisoindolin-5-yl)amino)propoxy)phenyl)propan-2-yl)phenoxy)methyl) thiazol-4-carbonylamine]
DC50 (class symbols): 11 to 100 nM

CC(C)(c1ccc(Oc2cc(-n3nccn3)ncn2)cc1)c1ccc(O[C@H]2C[C@@H](Nc3ccc4c(c3)C(=O)N(C3CCC(=O)NC3=O)C4=O)C2)cc1 (stereo partly drawn) [Example 577]
DC50 (class symbols): 11 to 100 nM

CC(=O)c1nccc(COc2ccc(C(C)(C)c3ccc(N4CC5(C4)CN(c4ccc6c(c4)C(=O)N(C4CCC(=O)NC4=O)C6=O)C5)cc3)cc2)n1 (stereo not drawn) [Example 488]
DC50 (class symbols): 11 to 100 nM

CC(O)c1ncc(Oc2ccc(C(C)(C)c3ccc(OC[C@@H]4CCN4c4ccc5c(c4)C(=O)N(C4CCC(=O)NC4=O)C5=O)cc3)cc2)cn1 (stereo partly drawn) [Example 340]
DC50 (class symbols): 11 to 100 nM

CC(C)(c1ccc(Oc2ncc(I)cn2)cc1)c1ccc(O[C@H]2C[C@@H](Nc3ccc4c(c3)C(=O)N(C3CCC(=O)NC3=O)C4=O)C2)cc1 (stereo partly drawn) [Example 316]
DC50 (class symbols): 11 to 100 nM

Cn1nccc1-c1nccc(COc2ccc(C(C)(C)c3ccc(O[C@H]4C[C@@H](Nc5ccc6c(c5)C(=O)N(C5CCC(=O)NC5=O)C6=O)C4)cc3)cc2)n1 (stereo partly drawn) [Example 417]
DC50 (class symbols): 11 to 100 nM
